The values that follow come from ChEMBL document CHEMBL4229526, “Quinoxaline derivatives as potential antitrypanosomal and antileishmanial agents” (Bioorg Med Chem, 2018).

For orientation: IC50 means the point on the concentration scale where inhibition reaches its midpoint. By CC50 is commonly meant the concentration giving 50% cytotoxicity.

One data set deals with H9c2. Briefly: Cytotoxicity against rat H9c2 cells infected with Trypanosoma cruzi Tulahuen amastigote forms assessed as reduction in cell number after 72 hrs by DRAQ5 DNA dye based confocal microscopic analysis. Conditions: H9c2, 72 h.
Consider `COc1ccc(-c2nc3ccccc3nc2-c2ccc(OC)cc2)cc1`, for which the IC50 was greater than 50 µM.

With `Clc1ccc2nc(-c3ccccc3)c(-c3ccccc3)nc2c1`, the IC50 is greater than 50 µM.

Turning to `Clc1cc2nc(-c3ccccc3)c(-c3ccccc3)nc2cc1Cl`, the 50% inhibitory concentration (IC50) was greater than 50 µM.

`Cc1ccc(-c2nc3cc(Cl)c(Cl)cc3nc2-c2ccccc2)cc1`: the IC50 was greater than 50 µM.

Turning to `CS(=O)(=O)c1ccc(-c2nc3ccc(Br)cc3nc2-c2ccc(Cl)cc2)cc1`, the IC50 came out at 1.26 µM.

Another data set has as its system Trypanosoma cruzi. Briefly: Antitrypanosomal activity against Trypanosoma cruzi Tulahuen trypomastigote forms infected in monkey LLC-MK2 cells after 24 hrs by CellTiter-Glo luminescent cell viability assay. Format: functional, organism-based. As to conditions: LLC-MK2, 24 h. A general note: In ATP-based viability assays light output follows the ATP content of the culture.
`COc1ccc(-c2nc3ccccc3nc2-c2ccc(OC)cc2)cc1`: the 50% inhibitory concentration (IC50) is greater than 50 µM.

`Clc1ccc2nc(-c3ccccc3)c(-c3ccccc3)nc2c1` came in with an IC50 greater than 50 µM.

For `Clc1cc2nc(-c3ccccc3)c(-c3ccccc3)nc2cc1Cl`, the IC50 is greater than 50 µM.

In turn, `Cc1ccc(-c2nc3cc(Cl)c(Cl)cc3nc2-c2ccccc2)cc1` showed a half-maximal inhibitory concentration (IC50) greater than 50 µM.

`CS(=O)(=O)c1ccc(-c2nc3ccc(Br)cc3nc2-c2ccc(Cl)cc2)cc1` had an IC50 of 0.06 µM.

The next data set has as its system Trypanosoma cruzi. Description: Antitrypanosomal activity against Trypanosoma cruzi Tulahuen amastigote forms infected in rat H9c2 cells assessed as reduction in amastigote number per cell after 72 hrs by DRAQ5 DNA dye based confocal microscopic analysis. Format: functional, organism-based. Conditions: H9c2, 72 h.
On to `COc1ccc(-c2nc3ccccc3nc2-c2ccc(OC)cc2)cc1`, for which the IC50 came out at 10 µM.

With `Clc1ccc2nc(-c3ccccc3)c(-c3ccccc3)nc2c1`, the IC50 amounted to 15.8 µM.

With `Clc1cc2nc(-c3ccccc3)c(-c3ccccc3)nc2cc1Cl`, the IC50 is greater than 50 µM.

On to `Cc1ccc(-c2nc3cc(Cl)c(Cl)cc3nc2-c2ccccc2)cc1`, for which the half-maximal inhibitory concentration (IC50) came to 10 µM.

As to `CS(=O)(=O)c1ccc(-c2nc3ccc(Br)cc3nc2-c2ccc(Cl)cc2)cc1`, the half-inhibitory concentration (IC50) was determined as 2 µM.

For a further data set, the system named is Leishmania donovani. Briefly: Potency index, ratio of miltefosine IC50 to test compound IC50 for Leishmania donovani MHOM/SD/62/1S-CL2D LdBOB axenic amastigotes harboring eGFP. Format: functional.
Conditions: not given
For `CS(=O)(=O)c1ccc(-c2nc3ccc(Br)cc3nc2-c2ccc(Cl)cc2)cc1`, the “Ratio IC50” value was determined as 26.3.

In the next data set the test system is THP-1. Description: Cytotoxicity against human THP1 cells infected with Leishmania donovani MHOM/SD/62/1S-CL2D LdBOB amastigotes harboring eGFP assessed as reduction in cell number after 96 hrs by DAPI staining based microscopic analysis. As to conditions: THP-1, 96 h.
As for `COc1ccc(-c2nc3ccccc3nc2-c2ccc(OC)cc2)cc1`, the IC50 was greater than 50 µM.

For `Clc1ccc2nc(-c3ccccc3)c(-c3ccccc3)nc2c1`, the IC50 is greater than 50 µM.

On to `Clc1cc2nc(-c3ccccc3)c(-c3ccccc3)nc2cc1Cl`, for which the half-inhibitory concentration (IC50) was greater than 50 µM.

Turning to `Cc1ccc(-c2nc3cc(Cl)c(Cl)cc3nc2-c2ccccc2)cc1`, the IC50 was greater than 50 µM.

As to `CS(=O)(=O)c1ccc(-c2nc3ccc(Br)cc3nc2-c2ccc(Cl)cc2)cc1`, the IC50 was found to be 2 µM.

A further data set has as its system Leishmania donovani. Briefly: Antileishmanial activity against Leishmania donovani MHOM/SD/62/1S-CL2D LdBOB axenic amastigotes harboring eGFP after 72 hrs by resazurin dye based fluorescence assay. Format: functional, organism-based.
Conditions: not given
(In general: Alamar Blue is a resazurin reagent that responds to reducing activity.)
In turn, `COc1ccc(-c2nc3ccccc3nc2-c2ccc(OC)cc2)cc1` registered an IC50 greater than 50 µM.

The compound `Clc1ccc2nc(-c3ccccc3)c(-c3ccccc3)nc2c1` gave an IC50 greater than 50 µM.

On to `Clc1cc2nc(-c3ccccc3)c(-c3ccccc3)nc2cc1Cl`, for which the IC50 is greater than 50 µM.

The compound `Cc1ccc(-c2nc3cc(Cl)c(Cl)cc3nc2-c2ccccc2)cc1` gave an IC50 greater than 50 µM.

`CS(=O)(=O)c1ccc(-c2nc3ccc(Br)cc3nc2-c2ccc(Cl)cc2)cc1` showed a half-maximal inhibitory concentration (IC50) of 0.32 µM.

For another data set, the system named is Leishmania donovani. Briefly: Antileishmanial activity against Leishmania donovani MHOM/SD/62/1S-CL2D LdBOB amastigotes harboring eGFP infected in human THP1 cells assessed as reduction in number of amastigotes per cell after 96 hrs by DAPI staining based microscopic analysis. Format: functional, organism-based. As to conditions: THP-1, 96 h.
`COc1ccc(-c2nc3ccccc3nc2-c2ccc(OC)cc2)cc1`: the IC50 is greater than 50 µM.

For `Clc1ccc2nc(-c3ccccc3)c(-c3ccccc3)nc2c1`, the IC50 is greater than 50 µM.

In the case of `Clc1cc2nc(-c3ccccc3)c(-c3ccccc3)nc2cc1Cl`, the IC50 is greater than 50 µM.

In the case of `Cc1ccc(-c2nc3cc(Cl)c(Cl)cc3nc2-c2ccccc2)cc1`, the IC50 is greater than 50 µM.

Consider `CS(=O)(=O)c1ccc(-c2nc3ccc(Br)cc3nc2-c2ccc(Cl)cc2)cc1`, for which the IC50 was 2.51 µM.

The subject of the next data set is Trypanosoma brucei. Briefly: Antitrypanosomal activity against Trypanosoma brucei Lister 427 bloodstream forms after 48 hrs by resazurin dye based fluorescence assay. As to conditions: Lister 427, 48 h. Format: functional, organism-based.
The compound `COc1ccc(-c2nc3ccccc3nc2-c2ccc(OC)cc2)cc1` gave an IC50 of 31.6 µM.

The compound `Clc1ccc2nc(-c3ccccc3)c(-c3ccccc3)nc2c1` showed an IC50 of 25.1 µM.

For `Clc1cc2nc(-c3ccccc3)c(-c3ccccc3)nc2cc1Cl`, the IC50 came to 39.8 µM.

Regarding `Cc1ccc(-c2nc3cc(Cl)c(Cl)cc3nc2-c2ccccc2)cc1`, the IC50 came to 19.9 µM.

As for `CS(=O)(=O)c1ccc(-c2nc3ccc(Br)cc3nc2-c2ccc(Cl)cc2)cc1`, 1.26 µM corresponded to half-maximal inhibition (IC50).

System in the next data set: not listed separately
Description: Cytotoxicity against human HepG2 cells after 48 hrs by CellTiter-Glo cell viability assay. Format: cell-based.
Conditions: not given
`COc1ccc(-c2nc3ccccc3nc2-c2ccc(OC)cc2)cc1`: the CC50 at 48 h is greater than 100 µM.

For the compound `Clc1ccc2nc(-c3ccccc3)c(-c3ccccc3)nc2c1`, the 50% cytotoxic concentration (CC50) at 48 h was greater than 100 µM.

Take `Clc1cc2nc(-c3ccccc3)c(-c3ccccc3)nc2cc1Cl`: the cytotoxic concentration (CC50) at 48 h is greater than 100 µM.

Take `Cc1ccc(-c2nc3cc(Cl)c(Cl)cc3nc2-c2ccccc2)cc1`: the CC50 at 48 h is greater than 100 µM.

With `CS(=O)(=O)c1ccc(-c2nc3ccc(Br)cc3nc2-c2ccc(Cl)cc2)cc1`, it took 2 µM to reach half-maximal cytotoxicity (CC50 at 48 h).

In another data set the test system is Leishmania donovani. Briefly: Antileishmanial activity against Leishmania donovani MHOM/SD/62/1S-CL2D LdBOB amastigotes harboring eGFP infected in human THP1 cells assessed as reduction in infected cells after 96 hrs by DAPI staining based microscopic analysis. Conditions: THP-1, 96 h. Format: functional, organism-based.
In the case of `COc1ccc(-c2nc3ccccc3nc2-c2ccc(OC)cc2)cc1`, the IC50 was greater than 50 µM.

For `Clc1ccc2nc(-c3ccccc3)c(-c3ccccc3)nc2c1`, the IC50 was greater than 50 µM.

Turning to `Clc1cc2nc(-c3ccccc3)c(-c3ccccc3)nc2cc1Cl`, the IC50 is greater than 50 µM.

Take `Cc1ccc(-c2nc3cc(Cl)c(Cl)cc3nc2-c2ccccc2)cc1`: the IC50 was greater than 50 µM.

Turning to `CS(=O)(=O)c1ccc(-c2nc3ccc(Br)cc3nc2-c2ccc(Cl)cc2)cc1`, the IC50 is 3.98 µM.

A further data set relates to Leishmania donovani. Briefly: Potency index, ratio of amphotericin B IC50 to test compound IC50 for Leishmania donovani MHOM/SD/62/1S-CL2D LdBOB axenic amastigotes harboring eGFP. Format: functional.
Conditions: not given
As for `CS(=O)(=O)c1ccc(-c2nc3ccc(Br)cc3nc2-c2ccc(Cl)cc2)cc1`, the “Ratio IC50” value is on record as 5.3.

The next data set deals with Trypanosoma cruzi. Briefly: Antitrypanosomal activity against Trypanosoma cruzi Tulahuen amastigote forms infected in rat H9c2 cells assessed as reduction in infected cells after 72 hrs by DRAQ5 DNA dye based confocal microscopic analysis. It is filed as functional, organism-based. As to conditions: H9c2, 72 h.
For `COc1ccc(-c2nc3ccccc3nc2-c2ccc(OC)cc2)cc1`, the IC50 is 12.6 µM.

As to `Clc1ccc2nc(-c3ccccc3)c(-c3ccccc3)nc2c1`, the IC50 worked out at 19.9 µM.

As for `Clc1cc2nc(-c3ccccc3)c(-c3ccccc3)nc2cc1Cl`, the IC50 was greater than 50 µM.

On to `Cc1ccc(-c2nc3cc(Cl)c(Cl)cc3nc2-c2ccccc2)cc1`, for which the IC50 amounted to 15.8 µM.

Consider `CS(=O)(=O)c1ccc(-c2nc3ccc(Br)cc3nc2-c2ccc(Cl)cc2)cc1`, for which the IC50 was determined as 2 µM.
